Assay results from patent US10112907B2, “Substituted indazoles for treating tendon and/or ligament injuries” (NOVARTIS AG, priority 2016, dated 2018).
Read-outs that look alike come from different tables or passages of the source. Values belong to the molecule of their own block, whether it stands above or below them.

Legend:
[1] = system: Scleraxis (Scx) gene transcriptional activation in TT-D6 Scx-luciferase (ScxL) cell line; test: SCX-LUC in vitro assay (Scx-luciferase reporter); type: cell-based; conditions: Mus musculus
[2] = target: recombinant human Jak1 (aa 866-1154) (Homo sapiens (Human), UniProt P23458); test: Kinase selectivity panel, substrate peptide phosphorylation (Caliper); type: biochemical
[3] = target: recombinant human Jak2 (aa808-1132) (Homo sapiens (Human), UniProt O60674); test: as above; type: biochemical
[4] = system: Tenomodulin (Tnmd) gene expression in rat tail tendon fascicles; test: Ex vivo assay, Tnmd mRNA in tendon fascicles (qPCR); type: cell-based, Sprague Dawley rat
[5] = target: recombinant human Tyk2 (aa888-1187) (Homo sapiens (Human), UniProt P29597); test: Kinase selectivity panel, substrate peptide phosphorylation (Caliper); type: biochemical; conditions: 45 uM ATP
[6] = target: recombinant human Jak3 (aa811-1124) (Homo sapiens (Human), UniProt P52333); type: biochemical
[7] = system: Scleraxis (Scx) gene expression in rat tail tendon fascicles; test: Ex vivo assay, Scx mRNA in tendon fascicles (qPCR); type: cell-based, Sprague Dawley rat
[8] = system: collagen type I (Col1a2) gene expression in rat tail tendon fascicles; test: Ex vivo assay, Col1a2 mRNA in tendon fascicles (qPCR); type: cell-based, Sprague Dawley rat
[9] = Table 1, read-out: Scx-Luc (EC50 uM)
[10] = Table 1, read-out: Ex vivo Tnmd (EC50 uM)
[11] = Table 1, read-out: Ex vivo SCX (EC50 uM)
[12] = Table 1, read-out: Ex vivo Col1a2 (EC50 uM)
[13] = 96 h, Table 3, four days, read-out: Scx-Luc (EC50 μM)
[14] = 96 h, Table 3, four days, read-out: Ex vivo Tnmd (EC50 μM)
[15] = 96 h, Table 3, four days, read-out: Ex vivo Scx (EC50 μM)
[16] = 96 h, Table 3, four days, read-out: Ex vivo Col1a2 (EC50 μM)
[17] = read-out: Ex vivo Tnmd (EC50 uM)
[18] = read-out: Ex vivo SCX (EC50 uM)
[19] = read-out: Ex vivo Col1a2 (EC50 uM)

recombinant human Jak1 (aa 866-1154), sequence (P23458 866-1154): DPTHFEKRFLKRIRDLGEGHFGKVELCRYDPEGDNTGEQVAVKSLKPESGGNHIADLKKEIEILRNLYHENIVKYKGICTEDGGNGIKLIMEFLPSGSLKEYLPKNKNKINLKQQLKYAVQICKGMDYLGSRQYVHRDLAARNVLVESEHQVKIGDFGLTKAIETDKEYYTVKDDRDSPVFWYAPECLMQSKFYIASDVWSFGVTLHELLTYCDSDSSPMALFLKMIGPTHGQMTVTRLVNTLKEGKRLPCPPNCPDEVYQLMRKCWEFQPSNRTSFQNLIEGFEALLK
recombinant human Jak3 (aa811-1124), sequence (P52333 811-1124): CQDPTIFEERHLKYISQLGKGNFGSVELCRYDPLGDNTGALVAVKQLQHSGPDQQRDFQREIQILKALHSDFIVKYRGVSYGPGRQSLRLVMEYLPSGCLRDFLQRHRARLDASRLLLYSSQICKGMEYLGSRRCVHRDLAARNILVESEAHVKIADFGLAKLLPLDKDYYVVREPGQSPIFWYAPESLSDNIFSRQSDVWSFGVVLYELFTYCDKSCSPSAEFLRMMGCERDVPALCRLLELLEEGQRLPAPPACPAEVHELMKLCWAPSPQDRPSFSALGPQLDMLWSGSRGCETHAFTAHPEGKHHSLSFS
recombinant human Tyk2 (aa888-1187), sequence (P29597 888-1187): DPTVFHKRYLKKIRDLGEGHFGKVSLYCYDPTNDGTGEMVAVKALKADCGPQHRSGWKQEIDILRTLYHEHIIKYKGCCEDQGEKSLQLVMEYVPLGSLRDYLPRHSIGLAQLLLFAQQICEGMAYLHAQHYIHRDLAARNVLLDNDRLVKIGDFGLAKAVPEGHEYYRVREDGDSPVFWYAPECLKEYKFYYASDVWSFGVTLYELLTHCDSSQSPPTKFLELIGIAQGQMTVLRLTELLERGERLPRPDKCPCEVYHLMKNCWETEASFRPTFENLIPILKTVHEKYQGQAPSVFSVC

SMILES: N#Cc1ccc(COc2ccc(-c3cccc4nc(NC(=O)C5CC5)nn34)cc2)cn1 [reference compound]
EC50 [1, 9]: 0.22 µM
IC50 [2]: 0.001 µM
IC50 [3]: 0.03 µM
EC50 [4, 10]: 1.31 µM
IC50 [5]: 0.11 µM
IC50 [6]: 0.38 µM
EC50 [7, 11]: 5.77 µM
EC50 [8, 12]: 0.9 µM

SMILES: CCS(=O)(=O)N1CC(CC#N)(n2cc(-c3ncnc4[nH]ccc34)cn2)C1
IC50 [5]: 0.03 µM

EC50 [1, 13]: 0.242 µM
EC50 [4, 14]: 0.706 µM
EC50 [7, 15]: 3.8 µM
EC50 [8, 16]: 4.42 µM
SMILES: Cc1cc(S(=O)(=O)N2CC(F)(F)C[C@H]2CO)ccc1-c1ccc2[nH]nc(N)c2c1Cl [Example 54, (S)-(1-((4-(3-amino-4-chloro-1H-indazol-5-yl)-3-methylphenyl)sulfonyl)-4,4-difluoropyrrolidin-2-yl)methanol]

EC50 [1, 13]: 0.228 µM
EC50 [4, 14]: 5.5 µM
EC50 [7, 15]: 3.14 µM
EC50 [8, 16]: 3.5 µM
SMILES: Cc1c(-c2ccc(S(=O)(=O)N[C@H]3C[C@](O)(C(F)(F)F)C3)cc2Cl)ccc2[nH]nc(N)c12 [Example 55, 4-(3-amino-4-methyl-1H-indazol-5-yl)-3-chloro-N-((1s,3s)-3-hydroxy-3-(trifluoromethyl)cyclobutyl)benzenesulfonamide]

EC50 [1, 13]: 1.25 µM
EC50 [4, 14]: 2.85 µM
EC50 [7, 15]: 4.44 µM
EC50 [8, 16]: 2.41 µM
SMILES: Cc1cc(S(=O)(=O)N[C@@H]2COCC[C@H]2O)ccc1-c1ccc2[nH]nc(N)c2c1C [Example 45, 4-(3-amino-4-methyl-1H-indazol-5-yl)-N-((3R,4R)-4-hydroxytetrahydro-2H-pyran-3-yl)-3-methylbenzenesulfonamide]

SMILES: CC1(C)CN(C(=O)c2ccc(-c3cccc4nc(NC(=O)C5CC5)nn34)cc2)C1 [reference compound]
EC50 ([1]; read-out: Scx-Luc (EC50 uM)): 1.42 µM
EC50 [4, 10]: 3.69 µM
EC50 [7, 11]: 3.56 µM
EC50 [8, 12]: 3.62 µM

EC50 [1, 13]: 0.988 µM
EC50 [4, 14]: 2.92 µM
EC50 [7, 15]: 2.69 µM
EC50 [8, 16]: 1.82 µM
SMILES: Cc1cc(S(=O)(=O)N[C@H]2C[C@@](C)(O)C2)ccc1-c1ccc2[nH]nc(N)c2c1C [Example 40, 4-(3-amino-4-methyl-1H-indazol-5-yl)-N-((1s,3s)-3-hydroxy-3-methylcyclobutyl)-3-methylbenzenesulfonamide]

EC50 [1, 13]: 0.227 µM
EC50 [4, 14]: 1.69 µM
EC50 [7, 15]: 0.996 µM
EC50 [8, 16]: 1.82 µM
SMILES: Cc1cc(S(=O)(=O)N[C@H]2C[C@](O)(C(F)(F)F)C2)ccc1-c1ccc2[nH]nc(N)c2c1Cl [Example 37, 4-(3-amino-4-chloro-1H-indazol-5-yl)-N-((1s,3s)-3-hydroxy-3-(trifluoromethyl)cyclobutyl)-3-methylbenzenesulfonamide]

EC50 [1, 13]: 1.29 µM
EC50 [4, 14]: 7.38 µM
EC50 [7, 15]: 3.26 µM
EC50 [8, 16]: 2.01 µM
SMILES: Cc1cc(S(=O)(=O)NC2CC(O)(C3CC3)C2)ccc1-c1ccc2[nH]nc(N)c2c1C (stereo not shown) [Example 50, 4-(3-amino-4-methyl-1H-indazol-5-yl)-N-(3-cyclopropyl-3-hydroxycyclobutyl)-3-methylbenzenesulfonamide]

SMILES: C1=C/COCc2cc(ccc2OCCN2CCCC2)Nc2nccc(n2)-c2cccc(c2)COC/1 [reference compound]
EC50 ([1]; read-out: Scx-Luc (EC50 uM)): 1.06 µM
EC50 [4, 10]: 6.71 µM
EC50 [7, 11]: 3.32 µM
EC50 [8, 12]: 3.11 µM

EC50 [1, 13]: 0.275 µM
EC50 [4, 14]: 1.6 µM
EC50 [7, 15]: 3.62 µM
EC50 [8, 16]: 2.63 µM
SMILES: Cc1cc(S(=O)(=O)N2CC[C@H](O)C2)ccc1-c1ccc2[nH]nc(N)c2c1C [Example 5, (S)-1-((4-(3-amino-4-methyl-1H-indazol-5-yl)-3-methylphenyl)sulfonyl)pyrrolidin-3-ol]

EC50 [1, 13]: 2.1 µM
EC50 [4, 14]: 1.89 µM
EC50 [7, 15]: 4.57 µM
EC50 [8, 16]: 1.16 µM
SMILES: Cc1cc(S(=O)(=O)N2CC(F)(F)C2)ccc1-c1ccc2[nH]nc(N)c2c1C [Example 78, 5-(4-((3,3-difluoroazetidin-1-yl)sulfonyl)-2-methylphenyl)-4-methyl-1H-indazol-3-amine]

EC50 [1, 13]: 0.148 µM
EC50 [4, 14]: 3.84 µM
EC50 [7, 15]: 1.05 µM
EC50 [8, 16]: 1.48 µM
SMILES: Nc1n[nH]c2ccc(-c3ccc(S(=O)(=O)N[C@@H]4CCC[C@@H]4O)cc3Cl)c(Cl)c12 [Example 69, 4-(3-amino-4-chloro-1H-indazol-5-yl)-3-chloro-N-((1R,2S)-2-hydroxycyclopentyl)benzenesulfonamide]

EC50 [1, 13]: 2.21 µM
EC50 [4, 14]: 10 µM
EC50 [7, 15]: 1.73 µM
EC50 [8, 16]: 10 µM
SMILES: Cc1cc(S(=O)(=O)N[C@H]2C[C@@H](O)C2)ccc1-c1ccc2[nH]nc(N)c2c1C [Example 12, 4-(3-amino-4-methyl-1H-indazol-5-yl)-N-((1s,3s)-3-hydroxycyclobutyl)-3-methylbenzenesulfonamide]

SMILES: CS(=O)(=O)NCc1nc2cnc3[nH]ccc3c2n1[C@@H]1C[C@H]2CC[C@@H]1C2 [reference compound]
EC50 [1, 9]: 0.18 µM
IC50 [3]: 0.19 µM
EC50 [4, 10]: 4.57 µM
IC50 [5]: 0.14 µM
IC50 [6]: 0.95 µM
EC50 [7, 11]: 3.22 µM
EC50 [8, 12]: 3.76 µM

EC50 [1, 13]: 0.511 µM
EC50 [4, 14]: 0.513 µM
EC50 [7, 15]: 1.64 µM
EC50 [8, 16]: 1.55 µM
SMILES: Cc1cc(S(=O)(=O)N2CC[C@@H](O)C2)ccc1-c1ccc2[nH]nc(N)c2c1C [Example 4, (R)-1-((4-(3-amino-4-methyl-1H-indazol-5-yl)-3-methylphenyl)sulfonyl)pyrrolidin-3-ol]

SMILES: N#CCNC(=O)c1ccc(-c2ccnc(Nc3ccc(N4CCOCC4)cc3)n2)cc1 [reference compound]
EC50 [1, 9]: 0.12 µM
EC50 [4, 10]: 3.27 µM
EC50 [7, 11]: 3.92 µM
EC50 [8, 12]: 4.67 µM

EC50 [1, 13]: 1.58 µM
EC50 [4, 14]: 6.8 µM
EC50 [7, 15]: 6.98 µM
EC50 [8, 16]: 6.39 µM
SMILES: Cc1cc(S(=O)(=O)NC2CC(O)(Cc3ccccc3)C2)ccc1-c1ccc2[nH]nc(N)c2c1C (stereo not shown) [Example 51, 4-(3-amino-4-methyl-1H-indazol-5-yl)-N-(3-benzyl-3-hydroxycyclobutyl)-3-methylbenzenesulfonamide]

EC50 ([1]; read-out: Scx-Luc (EC50 uM)): 4.32 µM
EC50 [4, 17]: 6.93 µM
EC50 [7, 18]: 5.34 µM
EC50 [8, 19]: 5.01 µM
SMILES: O=C(Nc1nc2cccc(-c3ccc(CN4CCS(=O)(=O)CC4)cc3)n2n1)C1CC1 [reference compound]

EC50 [1, 13]: 0.126 µM
EC50 [4, 14]: 3.77 µM
EC50 [7, 15]: 5.54 µM
EC50 [8, 16]: 4.18 µM
SMILES: Cc1cc(S(=O)(=O)N[C@H]2C[C@](O)(C(F)(F)F)C2)ccc1-c1ccc2[nH]nc(N)c2c1C [Example 31, 4-(3-amino-4-methyl-1H-indazol-5-yl)-N-((1s,3s)-3-hydroxy-3-(trifluoromethyl)cyclobutyl)-3-methylbenzenesulfonamide]

SMILES: COc1ccc(-c2nc3c(NCC4CCNCC4)c(Cl)cnc3[nH]2)c(F)c1 [reference compound]
EC50 [1, 9]: 0.51 µM
EC50 [4, 10]: 0.08 µM
EC50 [7, 11]: 0.47 µM
EC50 [8, 12]: 1.15 µM

SMILES: C[C@@H](O)c1nc2cnc3[nH]ccc3c2n1[C@@H]1CCCOC1 [reference compound]
EC50 ([1]; read-out: Scx-Luc (EC50 uM)): 1.34 µM
EC50 [4, 10]: 6.11 µM
EC50 [7, 11]: 0.08 µM
EC50 [8, 12]: 4.66 µM

EC50 [1, 13]: 2.02 µM
EC50 [4, 14]: 0.463 µM
EC50 [7, 15]: 5.35 µM
EC50 [8, 16]: 3.31 µM
SMILES: Cc1cc(S(=O)(=O)N2CC[C@@H](O)C2)ccc1-c1ccc2[nH]nc(N)c2c1Cl [Example 7, (R)-1-((4-(3-amino-4-chloro-1H-indazol-5-yl)-3-methylphenyl)sulfonyl)pyrrolidin-3-ol]

SMILES: Cc1cc(Nc2nc(N[C@@H](C)c3ncc(F)cn3)ncc2Cl)n[nH]1 [reference compound]
EC50 ([1]; read-out: Scx-Luc (EC50 uM)): 0.008 µM
IC50 ([2]; 45 uM ATP): 0.0002 µM
IC50 ([3]; 45 uM ATP): 0.0007 µM
EC50 [4, 17]: 3.3 µM
IC50 [5]: 0.002 µM
IC50 ([6]; 45 uM ATP): 0.06 µM
EC50 [7, 18]: 3.37 µM
EC50 [8, 19]: 2.61 µM

EC50 ([1]; read-out: Scx-Luc (EC50 uM)): 0.12 µM
EC50 [4, 17]: 0.74 µM
EC50 [7, 18]: 3.13 µM
EC50 [8, 19]: 2.64 µM
SMILES: N#CC[C@H](C1CCCC1)n1cc(-c2ncnc3[nH]ccc23)cn1 [reference compound]

SMILES: C[C@@H](O)c1nc2cnc3[nH]ccc3c2n1[C@H]1CC[C@H](C#N)CC1 [reference compound]
EC50 ([1]; read-out: Scx-Luc (EC50 uM)): 2.69 µM
EC50 [4, 10]: 6.38 µM
EC50 [7, 11]: 4.27 µM
EC50 [8, 12]: 6.62 µM

SMILES: CC[C@@](C)(Nc1ccnc(-c2c[nH]c3ncccc23)n1)C(=O)NCC(F)(F)F [reference compound]
EC50 ([1]; read-out: Scx-Luc (EC50 uM)): 0.03 µM
IC50 ([2]; 45 uM ATP): 0.02 µM
IC50 [3]: 0.13 µM
EC50 [4, 17]: 1.77 µM
EC50 [7, 18]: 1.65 µM
EC50 [8, 19]: 0.88 µM
